Values quoted from earlier work in patent US20230263874A1, “TUMOR ANTIGENS FOR LIVER CANCER IMMUNOTHERAPY” (ISTITUTO NAZIONALE TUMORI IRCCS - FONDAZIONE G. PASCALE, priority 2020, published 2023).

Test system: hepatocellular carcinoma
Conditions: second-line treatment, advanced liver cancer not responded to sorafenib; cited from earlier work

SMILES: CNC(=O)c1cc(Oc2ccc(NC(=O)Nc3ccc(Cl)c(C(F)(F)F)c3)c(F)c2)ccn1 [Regorafenib]
- improvement in overall survival: 2.8 month
- reduction risk of death: 38%
